In patent US20170275371A1, “Methods Of Treatment” (GlaxoSmithKline Intellectual Property Development Limited, priority 2015, published 2017):
Values joined by “and” are separate entries in the source; they are usually repeats but may differ in a detail not shown here. Identical values can stand only once. “Also recorded” adds a separate entry of the source.

Legend:
[1] = system: CT-26 colon carcinoma tumors; assay: CT-26 syngeneic mouse model of colon cancer, i.p. dosing (Examples 1-4); type: in vivo; conditions: for tumor growth inhibition over time: TLR4 agonist 4, 20, 100 ug per mouse i.p. biweekly, vs vehicle (2% glycerol); for survivability: TLR4 agonist i.p. biweekly, vs vehicle
[2] = system: CT-26 colon carcinoma tumors; assay: In vivo anti-tumor efficacy in murine CT-26 colon carcinoma syngeneic solid tumor model (Example 5, Studies 1-4, 6, 7): tumor growth and survival; set-up: species or system mouse; conditions: for tumor growth inhibition vs control Group 5: 12 days
Description: The in vivo anti-tumor efficacy of the TLR4 agonist (CRX601) was assessed in the murine CT-26 colon carcinoma syngeneic solid tumor model as a monotherapy and in combination with a rate anti-mouse OX40 antibody clone OX86. Seven to eight week old female Balb/c mice (BALB/cAnNCrl, Charles River) were used in these studies. Murine CT-26 colon carcinoma cells (ATCC catalog number CRL-2638 lot#59227052) were cultured in RPMI growth medium supplemented with 10% fetal bovine serum (FBS) in a humidified 37° C. incubator with 5% CO2. CT-26 cells cultured in logarithmic growth were harvested from tissue culture flasks and centrifuged for 5 minutes at 450×g at 4° C. […] to pellet cells. The supernatant was discarded, and cells were washed in ice cold phosphate buffered saline (PBS) without calcium and magnesium and centrifuged again for 5 minutes at 450×g at 4° C. […] to pellet cells. The cells were resuspended in sterile RPMI media without FBS and adjusted to a cell concentration of 500,000 cells/ml. 100 μl of the cell stock was implanted via subcutaneous injection into the right flank of each Balb/c mouse. After ten or eleven days when the average tumor size reached approximately 100 mm^3, mice were randomized into study cohorts according to tumor size and the first treatment dose was given. The TLR4 agonist (CRX601) or vehicle was dosed via a systemic intravenous or direct intratumoral injection as indicated. The CRX-601 vehicle used for intravenous and intratumoral dosing was […] where indicated. For CRX-601 liposomal intratumoral dosing, a DOPC/CHOL liposome prepared by GSK Lot #1783-157-B was used. The rat anti-mouse OX40 receptor antibody (clone OX86) (expressed and purified in-house from the rat hybridoma Grits ID 50776, BP232 2013) or Rat IgG1 isotype control antibody (BioXCell catalog # BE0088) was dosed via an intraperitoneal injection given twice per week for a total of six doses. Caliper measurements were taken three times per week to assess tumor growth, and mice with tumors <2,000 mm^3 were maintained on study from 30 up to approximately 115 days. Mice with tumors >2,000 mm^3 for 2 consecutive measurements or mice with tumors which formed open ulcers were removed from the study. Tumor volume was calculated using the formula (0.52)×(Length)×(Width^2). In studies 6 and 7, tumor-free mice were re-challenged with CT-26 tumor cells as described above, on the opposite flank from the original inoculation site and tumor growth was monitored, as described above. All studies were conducted in accordance with the GSK Policy on the Care, Welfare and Treatment of Laboratory Animals and were reviewed by the Institutional Animal Care and Use Committee at GSK.
For studies 1-4, to determine significance of tumor growth inhibition, tumor volumes at 11 (study 1), 15 (studies 2 and 3), or 19 (study 4) days after first dose were compared between the different treatment groups. Prior to the analysis, tumor volumes were natural log transformed due to the inequality of variance in the different treatment groups. ANOVA followed by pair-wise comparison was then carried out on the log transformed data. SAS 9.3 and R 3.0.2 analysis software was used. Kaplan-Meier (KM) method was carried out to estimate the survival probability of different treatment groups at a given time. The event for survival analysis was tumor volume of 2000 mm^3 or tumor ulceration, whichever came first. The exact time to cut-off volume was estimated by fitting a linear line between log tumor volume and day of two observations, the first observation that exceed the cut-off volume and the one observation that immediately preceded the cut-off volume. The median time to endpoint and its corresponding 95% confidence interval was calculated. Whether or not KM survival curves were statistically different between any two groups was then tested by log-rank test. […]

CT-26 tumor cells = assay: CT-26 tumor re-challenge of tumor-free mice (Studies 6 and 7); type: in vivo, mouse; conditions: vs naive control mice
Description: The in vivo anti-tumor efficacy of the TLR4 agonist (CRX601) was assessed in the murine CT-26 colon carcinoma syngeneic solid tumor model as a monotherapy and in combination with a rate anti-mouse OX40 antibody clone OX86. Seven to eight week old female Balb/c mice (BALB/cAnNCrl, Charles River) were used in these studies. Murine CT-26 colon carcinoma cells (ATCC catalog number CRL-2638 lot#59227052) were cultured in RPMI growth medium supplemented with 10% fetal bovine serum (FBS) in a humidified 37° C. incubator with 5% CO2. CT-26 cells cultured in logarithmic growth were harvested from tissue culture flasks and centrifuged for 5 minutes at 450×g at 4° C. for ten minutes to pellet cells. The supernatant was discarded, and cells were washed in ice cold phosphate buffered saline (PBS) without calcium and magnesium and centrifuged again for 5 minutes at 450×g at 4° C. for ten minutes to pellet cells. The cells were resuspended in sterile RPMI media without FBS and adjusted to a cell concentration of 500,000 cells/ml. […] Tumor volume was calculated using the formula (0.52)×(Length)×(Width^2). In studies 6 and 7, tumor-free mice were re-challenged with CT-26 tumor cells as described above, on the opposite flank from the original inoculation site and tumor growth was monitored, as described above. […]

TNF alpha and IL-12p70 = assay: Multiplex cytokine analysis of plasma from CT-26 mice (Study 5); type: in vivo, mouse; conditions: CRX-601 10 ug, OX-86, or both
Description: Tumors, blood and tissues were harvested from CT-26 mice on day 0, day 1 and day 8 after first CRX-601 dosing. Mouse white blood cells and dissociated tumor single cells were stained freshly with surface or intracellular staining antibodies for multicolor flow cytometry analysis for immunephenotyping. Multiplex cytokine analysis was performed using mouse plasma samples from the same study.
Results are the mean of five animals per cohort.

[3] = system: OX40 expression on human PBMCs; assay: In vitro human PBMC assay, OX40 expression by flow cytometry; type: cell-based; conditions: 24 hours, 0.01 μg/ml-1,000 μg/ml
Description: In vitro human peripheral blood mononuclear cell (PBMC) assay was performed to assess the effect of CRX601 on OX40 expression. Freshly isolated human PBMCs were checked for viability and were cultured in AIM-V serum free media at a density of two million cells per well in a 24-well non tissue culture treated plate. PBMCs were stimulated with a dose concentration (0.01 μg/ml-1,000 μg/ml, including a vehicle blank) of CRX-601 for 24 hours. By the end of incubation, cells were collected for flow cytometry assessment of OX40 expression.

[4] = Study 1, 50 ug intratumoral, day 42
[5] = Study 2, 100 ug intravenous, day 32

In the case of `CCCCCCCCCCC[C@H](CC(=O)N[C@H]1[C@H](OC[C@H](NC(=O)C[C@@H](CCCCCCCCCCC)OC(=O)CCCCCCCCC)C(=O)O)O[C@H](CO)[C@@H](OP(=O)(O)O)[C@@H]1OC(=O)C[C@@H](CCCCCCCCCCC)OC(=O)CCCCCCCCC)OC(=O)CCCCCCCCC` [CRX-527], the “tumor growth inhibition over time” value [1] is reported as “inhibited tumor growth in a dose-dependent manner; also recorded: dose-dependent anti-tumor activity” and the survivability [1] is reported as “Dose dependence was also seen in the survivability”.

For `CCCCCCCCCCC[C@H](CC(=O)N[C@H]1[C@H](OC[C@H](NC(=O)C[C@@H](CCCCCCCCCCC)OCCCCCCCCCC)C(=O)O)O[C@H](CO)[C@@H](OP(=O)(O)O)[C@@H]1OC(=O)C[C@@H](CCCCCCCCCCC)OCCCCCCCCCC)OCCCCCCCCCC` [CRX-601], the “tumor growth inhibition over time” value [1] was “inhibited tumor growth in a dose-dependent manner; also recorded: dose-dependent anti-tumor activity”, the survivability [1] was “Dose dependence was also seen in the survivability” and the “tumor-free mice among mice remaining on study” value ([2]; Study 1, 10 ug intratumoral, day 42) was “single mouse remaining in the 10 μg group was tumor-free”. For the same compound, the “tumor growth inhibition vs vehicle” value ([2]; Study 1, 10 ug/mouse intratumoral twice per week x6, 11 days after initial dose) was “statistically significant”, the “tumor volume of remaining mouse not tumor-free” value [2, 4] was 854.19 mm^3 and the “tumor-free mice among mice remaining on study” value [2, 4] was “Three of the four”. For the same compound, the “increase in survival vs vehicle” value ([2]; Study 1, 50 ug intratumoral, day 42 post tumor cell inoculation) was “statistically significant”, the “tumor growth inhibition vs vehicle” value ([2]; Study 1, 50 ug/mouse intratumoral single dose, 11 days after initial dose) was “statistically significant” and the “anti-tumor activity (tumor growth inhibition over time)” value ([2]; Study 1, intratumoral 0.1, 1, 10 ug twice per week x6 or 50 ug single dose) was “dose-dependent anti-tumor activity”. The “tumor volume of single remaining mouse” value ([2]; Study 2, 10 ug intravenous, day 32) was 188.0 mm^3, the “tumor growth inhibition vs vehicle” value ([2]; Study 2, 10 ug/mouse intravenous twice per week x6, 15 days after initial dose) was “statistically significant” and the “tumor volumes of remaining mice not tumor-free” value [2, 5] was 1500.49 mm^3 and 962.61 mm^3. The “tumor-free mice among mice remaining on study” value [2, 5] was “One of the three”, the “increase in survival vs vehicle” value ([2]; Study 2, 100 ug intravenous, day 32 post tumor cell inoculation) was “statistically significant increase” and the “tumor growth inhibition vs vehicle” value ([2]; Study 2, 100 ug/mouse intravenous single dose, 15 days after initial dose) was “statistically significant”. The “anti-tumor activity (tumor growth inhibition over time)” value ([2]; Study 2, intravenous 1, 10 ug twice per week x6 or 100 ug single dose) was “dose-dependent anti-tumor activity”, the “tumor growth inhibition vs vehicle” value ([2]; Study 3, CRX-601 10 ug/mouse iv once per week x3, alone, 15 days after first dose) was “did not show statistically significant tumor growth inhibition” and the “tumor growth inhibition vs vehicle” value ([2]; Study 3, CRX-601 25 ug/mouse iv once per week x3, alone, 15 days after first dose) was “did not show statistically significant tumor growth inhibition”. For the same compound, the “anti-tumor activity (tumor volume over time)” value ([2]; Study 4, OX-86 25 ug/mouse twice per week x6, CRX-601 25 ug/mouse iv 1x/week x3, alone or combined) was “Anti-tumor activity was observed”, the “mice remaining tumor-free at study end” value ([2]; Study 4, day 111, 25 ug/mouse each agent, monotherapy arms with Rat IgG1 or vehicle, groups of 10) was “two” and the “tumor growth inhibition vs control Group 5” value ([2]; Study 6, CRX-601 25 ug intratumoral 1x/week x3 + Rat IgG1 (Group 6), 0.5% glycerol/4% dextrose) was “did not show statistically significant tumor growth inhibition”. For the same compound, the “tumor growth inhibition vs control Group 1” value ([2]; Study 6, CRX-601 25 ug iv 1x/week x3 + Rat IgG1 (Group 2), 0.5% glycerol/4% dextrose, 12 days after first dose) was “did not show statistically significant tumor growth inhibition”, the “mice showing full tumor regressions” value ([2]; Study 7, CRX601 25 ug IV alone (Group 2) or with OX86 IP (Group 4), day 80) was 5 out of 10 and the “increase in survival vs control Group 1” value ([2]; Study 7, CRX601 monotherapy IV (Group 2), 80 days after first dose) was “statistically significant”. For the same compound, the “increase in survival vs control Group 5” value ([2]; Study 7, CRX601 monotherapy intratumoral, DOPC/CHOL liposome formulation (Group 7), 80 days) was “statistically significant”, the “tumor growth inhibition vs control Group 5” value ([2]; Study 7, CRX-601 25 ug intratumoral, DOPC/CHOL liposomal formulation + Rat IgG1 (Group 7)) was “statistically significant” and the “tumor growth inhibition vs control Group 1” value ([2]; Study 7, CRX-601 25 ug iv (0.5% Glycerol/4% dextrose) + Rat IgG1 (Group 2), 12 days after initial dose) was “statistically significant”. The “mice fully regressed and tumor-free” value ([2]; Study 7, intratumoral liposomal arms: Group 8 combination, Group 6 OX86, Group 7 CRX601, day 80, groups of 10) was 2 mice, the “tumor growth after CT26 re-challenge of tumor-free mice” value (CT-26 tumor cells; Study 6, re-challenge on day 68) was “persistent anti-tumor memory immunity” and the “tumor growth after CT26 re-challenge of tumor-free mice” value (CT-26 tumor cells; Study 7, re-challenge on day 80) was “persistent anti-tumor memory”. For the same compound, the TNF alpha (TNF alpha and IL-12p70; 1 and 8 days post dosing) was “increase”, the IL-12p70 (TNF alpha and IL-12p70; only detectable at 8 days post dosing) was “increase” and the “OX40 expression on dendritic cells” value [3] was “quick upregulation of OX40 receptor expression”. For the same compound, the “OX40 expression on human CD4+ T cells” value [3] was “quick upregulation of OX40 receptor expression” and the “OX40 expression on monocytes” value [3] was “quick upregulation of OX40 receptor expression”.
